Test results as given in US20220339135A1, “COMPOSITIONS AND METHODS FOR MODULATING AN INFLAMMATORY RESPONSE” (Enzychem Lifesciences Corporation, priority 2019, published 2022).

Assays:
[1] = system: intracellular lysosomes of Raw264.7 cells; experiment: LPS-induced lysosomal activity (LYSO-ID); type: cell-based; conditions: LPS/PLAG treatment
Description: Raw264.7 cells were divided into two groups: 1) LPS treated group and 2) LPS/PLAG treated group. For the LPS treated group, cells were treated with 100 μg/ml of DMSO (as solvent control) for 1 hour and treated with LPS (100 ng/ml) for 15, 30, 60, and 120 minutes. For LPS/PLAG treated group, cells were treated with PLAG (100 μg/ml) for 1 hour and treated with LPS (100 ng/ml) for 15, 30, 60, and 120 minutes. Cells were then fixed and stained using rat anti-TLR4/MD2 antibody with Alexa488-conjugated anti-rat IgG secondary antibody. These were analyzed by confocal microscopy. Raw264.7 cells stimulated under the same conditions were fixed, permeabilized, and stained with CM-H2DCFDA, the LYSO-ID® Lysosomal Detection Kit and rabbit anti-p47phox. Confocal microscopy was performed; all data shown represent one experiment performed in triplicate.

[2] = system: intracellular calcium in dHL-60 cells; experiment: Fluo-4 calcium assay; type: cell-based, human
Description: Human leukemia line (HL-60) cells were differentiated (dHL-60) to neutrophil-like cells in the culture medium with the addition of 1.3% DMSO (Sigma) for 5 days in a humidified atmosphere at 37° C. without changing the medium. dHL-60 cells (2×10^5 cells/mL) were loaded with 5 μM fluo-4 AM for 45 minutes and washed three times with warmed modified (37° C.) HBSS buffer (137.93 mM NaCl, 5.33 mM KCl, 2 mM CaCl2), 1 mM MgSO4, 2.38 mM HEPES, 5.5 mM glucose, pH to 7.4). The cells were seeded on black-walled 96-well plates and then treated with vehicle (0.1% DMSO), ionomycin (5 μM; positive control) or PLAG (100 μg/mL) just before measurement. Baseline fluorescence was measured before treatment, and fluorescence was read every 20 s for 700 s using an excitation wavelength of 494 nm, an emission wavelength of 516 nm in a FlexStation 3 microplate reader (Molecular Devices). Fluorescence values were reported as F/Fo according to the calculation: [ΔF=(494 nm)f/(516 nm)f−(494 nm)0/(516 nm)0]. For studies in 0 mM external calcium, the cells were loaded as mentioned earlier. After being loaded, the cells were washed four times with calcium-free HBSS. The remainder of the study was carried out in calcium-free HBSS.
(§1) HL-60 cells were differentiated (dHL-60) to neutrophil-like cells in the culture medium with the addition of 1.3% DMSO (Sigma) for 5 days in a humidified atmosphere at 37° C. without changing the medium. dHL-60 cells (2×10^5 cells/mL) were loaded with 5 μM fluo-4 AM for 45 minutes and washed three times with warmed modified (37° C.) HBSS buffer (137.93 mM NaCl, 5.33 mM KCl, 2 mM CaCl2, 1 mM MgSO4, 2.38 mM HEPES, 5.5 mM glucose, pH to 7.4). […] Baseline fluorescence was measured before treatment, and fluorescence was read every 20 seconds for 700 seconds using an excitation wavelength of 494 nm, an emission wavelength of 516 nm in a FlexStation 3 microplate reader (Molecular Devices). Fluorescence values were reported as F/Fo according to the calculation: [ΔF=(494 nm)f/(516 nm)f−(494 nm)0/(516 nm)0]. […]
as §1, with “s” for “seconds”, “Devices).” for “Devices). Fluorescence values were reported as F/Fo according to the calculation: [ΔF=(494 nm)f/(516 nm)f−(494 nm)0/(516 nm)0].”

[3] = system: chemo-radiation induced oral mucositis; experiment: Chemo-radiation induced oral mucositis (CRIOM), Example 48; type: in vivo, mice
Description: Mice (7-9 weeks, Balb/[…]) were administered intraperitoneally 5-FU (100 mg/kg, Sigma Aldrich). After 1 hr, mice head received 20 Gy using x-ray irradiatior (X-RAD 320, 1.8 Gy/min). Custom-made lead shields were used for mice to limit the radiation to the heads. PLAG (Enzychem Lifesciences Co.) was administered orally with 250 mg/kg once daily. The experimental design of the study was represented in schematic design. […] Toluidine blue stains ribonucleotides and detect inflammatory tissues.

[4] = system: chemo-radiation and scratch induced oral mucositis; experiment: Chemo-radiation and scratch induced oral mucositis; type: in vivo, mice; conditions: PLAG 250 mg/kg oral, n=7
Description: For radiation therapy, mice received 1 Gy of gamma radiation with mice whole body. Mice were intraperitoneally administered 5-FU (Sigma Aldrich) at 50 mg/kg. For facilitating the risk of infection, mice were anesthetized with 2,2,2-tribromoethanol (150 mg/kg, Sigma Aldrich) by intraperitoneal injection, and then tongue was scratched 0.2 cm wound on a third of side at using the tip of an 18-gauge needle with an equal force and depth. PLAG (Enzychem Lifesciences) was stored in −80° C. refrigerator and was administered orally once with 250 mg/kg. Formulations were aggressively mixed to be cloudiness and were injected within 10 minutes.
The tongue was scratched 0.2 cm wound on a third of side at using the tip of an 18-gauge needle with an equal force and depth on Day 0, 7, 10, and 16. Mice were received 1 Gy of gamma radiation on Day 2 and 5-FU was administered intraperitoneally in a dose of 50 mg/kg on Days 4. For the group receiving PLAG, 250 mg/kg of PLAG was administered orally once daily. To check the oral mucositis, mice were anesthetized with 2,2,2-tribromoethanol (150 mg/kg, Sigma Aldrich) by intraperitoneal injection on Day 7, 10, 14, 18. Each group contained seven mice.

Structure (SMILES): CCCCC/C=C\C/C=C\CCCCCCCC(=O)OC(COC(C)=O)COC(=O)CCCCCCCCCCCCCCC (racemic) [PLAG, 1-palmitoyl-2-linoleoyl-3-acetylglycerol]
- lysosomal activity initiated [1]: 15 min
- return to homeostatic levels of lysosomal activity [1]: 60 min
- cytosolic calcium of dHL-60 cells ([2]; PLAG 100 μg/mL, ionomycin 5 μM): increased
- intracellular calcium levels, co-treatment with imiquimod ([2]; vs imiquimod alone, extracellular calcium-free and containing condition): significantly increased
- mucositis and ulcer in tongues ([3]; PLAG 250 mg/kg once daily, day 9): no mucositis and ulcer
- mice tongues stained with toluidine blue ([3]; PLAG treated group n=8, day 9): one out of eight
- survival rate after 18 days [4]: 85%
